Measured values reported in patent publication US8586768B2, “Design, synthesis and functional characterization of rottlerin analogs” (priority 2009, dated 2013).

Legend:
[1] = tested on: N27 cells; assay: MPP+-induced DNA fragmentation in N27 cells; format: cell-based, rat; conditions: co-treated with 3 μM
Description: To determine whether PK analogs are neuroprotective against MPP+-induced increases in caspase-3 and DNA fragmentation, their effects on MPP+-induced increases in caspase-3 activity and DNA fragmentation, markers of apoptotic cell death, were examined. All three analogs PK101-103 protected N27 cells from MPP+-induced caspase-3 activation and DNA fragmentation. […] (**p<0.01 and ***p<0.001, compared to vehicle control; #p<0.05, ##p<0.01, compared to MPP+ treatment).

[2] = tested on: caspase-3 activity in N27 cells; assay: MPP+-induced caspase-3 activity assay in N27 cells; format: cell-based, rat; conditions: for relative protection against MPP+-induced caspase-3 activity within the generation / blockage of MPP+-induced caspase-3 activity: 300 μM MPP+ 24 hr; for relative protection against MPP+-induced caspase-3 activity within the generation: 0.3-10 μM; for blockage of MPP+-induced caspase-3 activity: co-treated with 0.3, 1, 3 and 10 μM
Protocol: To determine whether PK analogs are neuroprotective against MPP+-induced increases in caspase-3 and DNA fragmentation, their effects on MPP+-induced increases in caspase-3 activity and DNA fragmentation, markers of apoptotic cell death, were examined.
The second generation PK analogs were further tested to determine whether the analogs are neuroprotective against MPP+-induced apoptotic cell death. The effects on MPP+-induced increases in caspase-3 enzymatic activity were analyzed, a marker of apoptotic cell death. […] At the end of the treatment, cytotoxicity was measured using the caspase-3 assay in a 96-well fluorescence microplate reader.
The third generation PK analogs were further tested to determine whether the analogs are neuroprotective against MPP+-induced apoptotic cell death. The effects on MPP+-induced increases in caspase-3 enzymatic activity were examined, a marker of apoptotic cell death. N27 cells were exposed to 300 μM MPP+ for 24 hr in the presence or absence of three different PK compounds in the dose range of 0.3-10 μM. At the end of the treatment, cytotoxicity was measured using the caspase-3 assay in a 96-well fluorescence microplate reader.
Rat mesencephalic dopaminergic clonal cells (N27) were used and maintained in RPMI 1640 complete medium supplemented with 10% Fetal Bovine Serum, 1% […] and 1% Penicillin/Streptomycin in a 37° C. incubator with 5% CO2. After 4-6 days in culture, the cells were used for the experiments.
N27 cells were exposed to MPP^+ for 24 hr in the presence or absence of PK analogs in the dose range of 1-30 μM.

[3] = Activity of simple rottlerin analogs compared with rottlerin (test not named)
Protocol: Design and Synthesis of Novel Rottlerin Analogs. Since Rottlerin has proven to be a difficult target to make synthetically, analogs have been developed and tested in an attempt to localize the region of activity and improve that activity. Initially, simple analogs of Rottlerin itself, obtained from CalBioChem (La Jolla, Calif., Cat #557370), were prepared and analyzed. Two compounds gave important results, one representing a simplified methylene linkage present in the parent compound (PK103), and the other (PK203) came from a simple bromination of natural Rottlerin.

[4] = tested on: mouse primary mesencephalic neuronal cultures; assay: 3H-dopamine uptake assay after MPP+ exposure; format: cell-based; conditions: 10 μM MPP+, 3 μM compound, 48 h
Protocol: Lead PK analogs protect against MPP^+-induced loss of TH+ neurons in primary mesencephalic cultures. To determine if lead PK analogs protect against degeneration of nigral dopaminergic neurons resulting from MPP+ neurotoxicity, mouse primary mesencephalic neuronal cultures (prepared from E16-18-day-old mice embryos) were exposed to 10 μM MPP^+ in the presence or absence of 3 μM of lead PK analogs, PK103, PK202, PK302 and parent compound rottlerin for 48 h, and then assessed the viability of dopaminergic neurons using the ^3H-dopamine uptake assay. (***p<0.005 (vehicle versus MPTP. ##p<0.01 (PK analogs versus MPTP)). Mazindol, a dopamine reuptake inhibitor, was used as a positive control for the assay.

[5] = molecular target: PKCδ (Homo sapiens, UniProt Q05655); conditions: background statement; cited from earlier work
Sequence of PKCδ (Q05655 whole entry): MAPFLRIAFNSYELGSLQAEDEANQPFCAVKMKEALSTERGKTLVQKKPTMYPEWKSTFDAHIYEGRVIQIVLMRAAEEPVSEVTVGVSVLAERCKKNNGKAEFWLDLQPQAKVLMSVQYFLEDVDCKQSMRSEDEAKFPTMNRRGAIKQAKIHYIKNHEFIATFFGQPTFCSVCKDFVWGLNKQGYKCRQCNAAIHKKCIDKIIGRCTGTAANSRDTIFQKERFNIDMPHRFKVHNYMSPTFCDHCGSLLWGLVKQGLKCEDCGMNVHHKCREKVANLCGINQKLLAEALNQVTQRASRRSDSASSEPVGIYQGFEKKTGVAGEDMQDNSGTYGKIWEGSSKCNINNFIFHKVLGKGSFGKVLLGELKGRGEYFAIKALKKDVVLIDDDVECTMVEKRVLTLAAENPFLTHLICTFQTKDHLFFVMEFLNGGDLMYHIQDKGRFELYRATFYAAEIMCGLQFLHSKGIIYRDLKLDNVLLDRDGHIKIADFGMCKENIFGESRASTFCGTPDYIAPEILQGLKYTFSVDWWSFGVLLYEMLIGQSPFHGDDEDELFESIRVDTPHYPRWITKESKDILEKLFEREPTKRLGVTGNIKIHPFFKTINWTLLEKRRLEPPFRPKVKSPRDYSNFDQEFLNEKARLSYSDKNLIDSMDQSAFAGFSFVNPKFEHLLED

## Oc1cc(O)c(Cc2c(O)cc(O)cc2O)c(O)c1 [PK103]
[1]
  blockage of MPP+-induced DNA fragmentation: significant blockage
[2]; co-treated with 3 μM
  blockage of MPP+-induced increases in caspase-3 activation: significant blockage
[3]
  activity compared with Rottlerin: less activity than Rottlerin

## CC(=O)c1c(O)c(C)c(O)c(Cc2c(O)c3c(c4c2OC(c2ccccc2)CC4=O)OC(C)(C)C=C3)c1O (stereo not drawn) [PK202]
[2]
  relative protection against MPP+-induced caspase-3 activity within the generation: more effectively protects
  blockage of MPP+-induced caspase-3 activity: dose-dependent blockage

## CC1(C)C=Cc2c(O)cc(O)c(C(=O)/C=C/c3ccccc3)c2O1 [PK302]
[2]
  relative protection against MPP+-induced caspase-3 activity within the generation: more effectively protect
  blockage of MPP+-induced caspase-3 activity: significant blockage

## CC(=O)c1c(O)c(C)c(O)c(Cc2c(O)c3c(c(C(=O)/C=C/c4ccccc4)c2O)OC(C)(C)C=C3)c1O [Rottlerin, (E)-1-[6-[(3-acetyl-2,4,6-trihydroxy-5-methylphenyl)methyl]-5,7-dihydroxy-2,2-dimethylchromen-8-yl]-3-phenylprop-2-en-1-one]
[4]
  protection against MPP+-induced loss of dopaminergic neurons (dopamine uptake): protected
[5]
  IC50: 3 to 6 µM
